# B1: IL-12: recombinant mouse IL-12 from R&D Systems (protein, UniProt P43431 23-215; P43432 23-335, looked up)
# Interleukin-12 subunit alpha: RVIPVSGPARCLSQSRNLLKTTDDMVKTAREKLKHYSCTAEDIDHEDITRDQTSTLKTCLPLELHKNESCLATRETSSTTRGSCLPPQKTSLMMTLCLGSIYEDLKMYQTEFQAINAALQNHNHQQIILDKGMLVAIDELMQSLNHNGETLRQKPPVGEADPYRVKMKLCILLHAFSTRVVTINRVMGYLSSA
# Interleukin-12 subunit beta: MWELEKDVYVVEVDWTPDAPGETVNLTCDTPEEDDITWTSDQRHGVIGSGKTLTITVKEFLDAGQYTCHKGGETLSHSHLLLHKKENGIWSTEILKNFKNKTFLKCEAPNYSGRFTCSWLVQRNMDLKFNIKSSSSSPDSRAVTCGMASLSAEKVTLDQRDYEKYSVSCQEDVTCPTAEETLPIELALEARQQNKYENYSTSFFIRDIIKPDPPKNLQMKPLKNSQVEVSWEYPDSWSTPHSYFSLKFFVRIQRKKEKMKETEEGCNQKGAFLVEKTSTEVQCKGGNVCVQAQDRYYNSSCSKWACVPCRVRS
# How the values were obtained:
# [1] = tested on: MCA205 cells; experiment: Cell death induction for vaccination, FACS analysis of Annexin V+ DAPI+ cells; assay type: cell-based, mouse; conditions: MCA205, 1 μM mitoxantrone, 24 hours
# Experimental: Anti cancer vaccination was assessed using a previously described setting (Casares et al., 2005; Obeid et al., 2007). CT26 cells were cultured with either PBS or 20 μM doxorubicin, and MCA205 with either PBS or 1 μM mitoxantrone for 24 h. All these treatments led to ˜50% of Annexin V^+ DAPI^+ cells, as assessed by FACS analysis at 24 hours. After careful washes, cells were resuspended in sterile PBS. CT26 cells were incubated in the presence or in the absence of antimycin A and deoxyglucose (2 μg/ml and 30 mM, respectively) for 20 min, or in the presence or in the absence of Oxi-ATP ([…]). After 3 washes, 3×10^6 dying CT26 cells (or 3×10^5 MCA205 cells) were injected subcutaneously into the left flank of mice. In some experiments, 100 μg of IL-1Ra (Anakinra) was injected along with the dying cells. Seven days later, mice were rechallenged into the right flank with 5×10^5 live CT26 cells (or, alternatively, 3.10^4 live MCA205 cells). Tumor growth was then monitored weekly.
# [2] = tested on: EL4 thymoma tumors; experiment: Chemotherapy of EL4 tumors established in mice; assay type: in vivo
# Experimental: FIG. 17. The anti-cancer activity of oxaliplatin depends on P2X7 and the NALP3 inflammasome. FIG. 17a,b,c. Therapeutic efficacy of oxaliplatin on established tumors depends on the integrity of the immune system on the P2X7/NALP3/casp-1 axis. EL4 thymoma tumors were established in syngenic mice bearing the indicated genotypes (a-c) or injected with anti-CD8 antibody (a). When the tumor reached 70-90mm^2 in size, mice were either left untreated or were treated with oxaliplatin. Each treatment group included 5-6 mice (X±SEM), and each experiment was repeated three times with similar results. * p<0.05. d. Caspase 1 is required for the immune response promoted by oxaliplatin chemotherapy. EG7 tumors established in the thigh were treated with one systemic injection of oxaliplatin. Inguinal lymph node cells were harvested 5 days later, and the gangliocytes were restimulated in vitro. IFNγ secretion was assessed by ELISA. Results (means of triplicates ±SEM, n=3) are representative of one typical experiment out of three. ^*P<0.01. FIG. 17d. The efficacy of anthracyclines against established colon cancer is dependent on IL-1β. CT26 tumors established for 10 days in WT mice were treated with one local injection of doxorubicin in the absence or presence of neutralizing anti-IL-1β Ab (n=10/group, *p<0.05). FIG. 17e. A single-nucleotide polymorphism (SNP) in P2X7 (rs3751143) affects the long-term efficacy of conventional anti-cancer therapy in breast cancer patients. Comparative Kaplan-Meier estimates of time to metastasis in two groups of patients bearing the normal (Glu496Glu) or loss-of-function (Glu496Ala) P2X7 alleles. The time to metastatic progression was analyzed in 225 women with non-metastatic breast cancer who received adjuvant chemotherapy with anthracylines.
# Wild type or loss-of-function C57BL/6 mice were injected s.c. with 10^6 EL4 cells into the right flank. Alternatively, wild-type BALB/c mice were injected with 5.10^5 CT26 cells into the right flank. Mice were then randomly assigned to treatment groups of 4-6 mice each. The tumor surface was monitored using a caliper. When tumor size reached 70-90 mm^2 for EL4 (9-12 days post-injection) or 60-80 mm^2 for CT26 (8-10 days post-injection), mice received chemotherapy (Apetoh et al., 2007). Mice bearing EL4 tumors were injected with oxaliplatin (5 mg/kg i.p), while mice bearing CT26 tumors were injected with doxorubicin (50 μl, 4 mM i.t). In some experiments, CT26 tumor-bearing mice received two injections (on day 0 and day 2 after the commencement of chemotherapeutic treatment) of IL-1Ra (McIntyre et al., 1991) (100 μg), anti-IL-1 antibody (100 μg) or hamster serum as a control.
# [3] = tested on: EG7 cells; experiment: ATP assays (extracellular and intracellular ATP, luciferin-luciferase) on oxaliplatin-treated tumor cells; assay type: cell-based, mouse
# Experimental: FIG. 1: ATP release by dying tumor cells dictates the immunogenicity of cell death. FIG. 1a. Accumulation of ATP in the extracellular space following exposure of tumor cells to chemotherapy. EG7 were treated with oxaliplatin, and ATP release into the supernatant was monitored. FIG. 1b. […] EG7 were treated with oxaliplatin for 24 hours and subsequently with antimycin A and deoxyglucose (A/D) for 20 min. Data (means±SEM of triplicates) of one representative experiment out of three are depicted. FIG. 1c. Failure of dying tumor cells depleted from ATP to elicit an OVA specific immune response. Live or oxaliplatin-treated EG7 cells were injected into the footpad of C57B1/6 mice. Five days later, popliteal lymph node cells were recovered and restimulated with the OVA holoprotein for 72 hours before quantification of IFNγ secretion. The levels of IFNγ secretion between mice immunized with ATP-depleted or not depleted EG7 were compared in three independent experiments. FIG. 1d. Inhibition of purinergic receptors with oxidized ATP (oxiATP) abolishes T cell priming by oxaliplatin-treated EG7 cells. […] Five days later, the local immune response was measured as in (a). […]
# Plates were read in a Fluostar luminometer (BMG Labtech).
# [4] = tested on: OT-1 CD8+ T cells; experiment: In vitro stimulation of OT-1 cells by BM-DC loaded with oxaliplatin-treated EG7; assay type: cell-based, mouse; conditions: rIL-1β 100 ng/ml or IL-12 10 ng/ml added to cocultures
# Experimental: FIG. 15. IL-1β-dependent CTL priming by dying tumor cells in vitro and in vivo. FIG. 15a. MyD88 is required at the level of the host but not that of the APC. DC from WT mice were first loaded with antigen (OVA holoprotein with C/P adjuvant, live or oxaliplatin-treated EG7 cells) and then injected into the footpad of into WT or MyD88^−/− recipients (n=6 mice/group). Five days later, the local immune response was measured as in FIG. 2d,e. Results of one typical experiment out of three are depicted. FIG. 15b. Casp-1 and IL-1β-dependent OT-I priming in vitro. The differentiation of IFNγ producing CD8^+ OT-1 cells was induced by incubating naïve OVA-specific TCR transgenic OT-1 lymphocytes with syngeneic BM-DC (derived from WT or Casp-1^−/− mice) that were loaded with oxaliplatin-treated EG7 for 2 days in vitro. […] Exogenous addition of rIL-1β (100 ng/ml) or IL-12 (10 ng/ml) to cocultures of Casp-1^−/− DC loaded with dying tumor cells and incubated with OT1 restored T cell priming. […] FIG. 15c. Specific and direct polarizing effects of IL-1β on T lymphocytes in vitro. Purified CD3^+ CD8^+ T cells derived from naïve WT mice were stimulated with anti-CD3 and anti-CD28 mAb for 5 days in the presence of the indicated cytokines (10 ng/ml for IL-12p70, 100 ng/ml for IL-1β, IL-6 and TNFα) -and IFNγ production was measured as in FIG. 3b. FIG. 15d. […]
# [5] = tested on: T cell priming for IFNγ production; experiment: Priming assay: dying EG7 cells injected into the footpad, IFNγ secretion of restimulated popliteal lymph node cells; assay type: in vivo, mice; conditions: cytokine co-injected with oxaliplatin-treated EG7: rIL-1β 250 ng, rIL-12 50 ng, rIL-6 250 ng per footpad
# Experimental: 1.10^6 CT26, EG7, or B16F10 cells were either left untreated or treated with doxorubicin (20 μM) or oxaliplatin (5 μg/ml) for 24 h. Cells were then injected into the footpad of syngenic mice. In some experiments, 20 or 100 μg of IL-1Ra (Anakinra) or 250 ng of recombinant murine IL-1β (or 250 ng of IL-6 or 50 ng of IL-12) was injected along with dying tumor cells into the footpad of mice. Alternatively, DC were cocultured with EG7 cells for 2 hours, followed by the purification of CD11c^+ cells with anti-CD11c mAb coupled to magnetic beads (Miltenyi Biotec, Paris, France) and injection of these purified DC into the footpad. Five days later, gangliocytes from popliteal lymph nodes were harvested, seeded in 96 U-well plates (3.10^5 cells per well), and restimulated with 1 mg/ml OVA protein. Restimulation with MCA205 or CT26 cells was performed using 3×10^4 tumor cells killed by 5 min heating at 42° C. followed by 1 cycle of freezing/thawing in liquid nitrogen. For B16F10, restimulation was achieved using gp100 peptide as previously described (Overwijk et al., 1998). As a positive control of T cell priming, mice were injected with OVA protein (1 mg) (or gp100 for B16F10) and the association of CpG (10 μg) and Poly I:C (5 μg). For CT26 priming experiments, cell lysate plus LPS (250 ng) was used as a positive control. Supernatants were harvested 72 hours later, and IFNγ secretion was assessed by ELISA. Alternatively, cells were stimulated with PMA (10 ng/ml) and ionomycin (1 μg/ml) for 1 h, followed by the addition of brefeldin A (10 μg/ml for 6 h at 37° C.) (Apetoh et al., 2007), surface staining with Abs specific for CD3, CD4 or CD8, fixation and permeabilization (Cytofix/cytoperm kit) and then labeled with antibodies specific for IFNγ. Immunofluorescence was analyzed on a LSRII flow cytometer (BD Biosciences) with FACSDiva software.
molecule,measurement,setting,value
O=C1c2c(O)ccc(O)c2C(=O)c2c(NCCNCCO)ccc(NCCNCCO)c21 [mitoxantrone],Annexin V+ DAPI+ cells,[1],~50%
O=C1[O][Pt]2([NH][C@@H]3CCCC[C@H]3[NH]2)[O]C1=O [oxaliplatin],response of EL4 tumors to oxaliplatin,[2]; Casp1−/− mice versus WT controls,responded less efficiently
same,therapeutic efficacy on established EL4 tumors,[2]; IfnγR1−/− mice,lost its therapeutic efficacy
same,therapeutic efficacy on established EL4 tumors,[2]; Il-12Rβ2−/− mice (and WT),remained efficient
same,response of EL4 tumors to oxaliplatin,[2]; Nalp3−/− mice versus WT controls,responded less efficiently
same,response of EL4 tumors to oxaliplatin,[2]; P2X7−/− mice versus WT controls,responded less efficiently
same,therapeutic efficacy on established EL4 tumors,[2]; T and B cell-deficient rag-2−/− mice,lost its therapeutic efficacy
same,therapeutic efficacy on established EL4 tumors,[2]; T cell-deficient nu/nu mice,lost its therapeutic efficacy
same,control of EL4 tumor growth,"[2]; immunocompetent WT mice, oxaliplatin 5 mg/kg i.p.",efficient in controlling EL4 tumor growth
same,therapeutic efficacy on established EL4 tumors,[2]; mice depleted from CD8+ T cells,lost its therapeutic efficacy
same,intracellular ATP,[3]; EG7 treated with oxaliplatin for 24 hours,Decrease of intracellular ATP
same,release of ATP into the supernatant,"[3]; EL4 thymomas and EG7 cells, oxaliplatin 5 μg/ml, 0-24 hours",induced the release of ATP
B1,priming capacity of Casp-1−/− DC for OT-1 cells (IFNγ),[4],restored the priming capacity
same,T cell priming in Nalp3−/− or Casp1−/− mice,[5],restored deficient T cell priming
